From PMC12195967, “Cobalt(II) Complexes of 4′–Nitro–Fenamic Acid: Characterization and Biological Evaluation” (Molecules, 2025)
Read-outs that look alike come from different tables or passages of the source.

Assays:
[1] = test system: Staphylococcus aureus ATCC 29213; assay: Antibacterial activity, MIC; assay type: cell-based; details: 24 h incubation, 37°C; for MIC: read-out: MIC, S. aureus
From the text: (§1) In order to evaluate the antimicrobial activity of the synthesized 4′–NO2–fenH and its Co(II) complexes 1–4, two Gram-positive (B. subtilis and S. aureus) and two Gram-negative (X. campestris and E. coli) strains were used. In general, the increased antimicrobial activity of the complexes is attributed to five main factors: (i) the chelation effect of the ligands, (ii) the chemical nature of the ligands, (iii) the nature and the nuclearity of the metal center, (iv) the total charge of the complex and (v) the presence and nature of counter ions. […]
(§2) S2 Antibacterial Activity studies
(§3) The antibacterial activity of the compounds was evaluated by determining their respective MIC values towards two Gram–(–) (Escherichia coli XL1 (E. coli) and Xanthomonas campestris ATCC 1395 (X. campestris)) and two Gram–(+) (Staphylococcus aureus ATCC 29213 (S. aureus) and Bacillus subtilis ATCC 6633 (B. subtilis)) bacterial species. Cultures of these microbial strains were grown on a rich selective agar medium and stored at 4°C. The selective media used were Nutrient Agar or Broth for B. subtilis and S. aureus, Yeast Mold Agar or Broth for X. campestris and Luria Agar or Broth for E. coli. Cells picked from the surface of the stored cultures were used to initiate liquid pre–cultures of the same selective medium at an initial turbidity of roughly 1 McFarland unit.
(§4) Pre–cultures were incubated for 24 h in a rotary shaking incubator and subsequently they were used to inoculate the test cultures used for the determination of MIC at an initial turbidity of 0.5 McFarland units. The test cultures consisted of Mueller–Hinton broth (Deben Diagnostics Ltd) containing different concentrations of the compounds. Different concentrations were achieved as follows: the compounds were freshly dissolved in DMSO to a concentration of 1 mg/mL, and they were diluted with DMSO, using the method of progressive double dilution. Therefore, working solutions with decreasing concentrations of the compounds under investigation were achieved.
(§5) The working solutions were subsequently diluted to the final desired concentration by addition to the growth medium at a proportion of 2:98. MIC values were determined as the lowest concentrations of the tested compounds that inhibited visible growth of each respective organism after a 24 h incubation. Bacterial growth was determined by measuring the turbidity of appropriately diluted cultures at 600 nm with reference to equally diluted sterile growth medium and the inhibition achieved was calculated by comparing the turbidity of each culture to the average of the turbidity of three non–inhibited cultures. All test cultures were grown in triplicates and for the determination of MIC, growth had to be inhibited in at least two cultures of the triplicate. The incubation temperature at all stages was 37°C except for X. campestris that was cultivated at 28°C [4].

[2] = test system: Xanthomonas campestris ATCC 33013; assay: Antibacterial activity, MIC; assay type: cell-based; details: for MIC: read-out: MIC, X. campestris
From the text: as §1, §2, §3, §4, §5

Escherichia coli XL1 = assay: Antibacterial activity, MIC; assay type: cell-based; details: 24 h incubation, 37°C
From the text: as §1, §2, §3, §4, §5

[3] = test system: Bacillus subtilis ATCC 6633; assay: Antibacterial activity, MIC; assay type: cell-based; details: 24 h incubation, 37°C; for MIC: read-out: MIC, B. subtilis
From the text: as §1, §2, §3, §4, §5

Solubility = assay type: physicochemical
DPPH radical scavenging = details: compounds 0.1 mM, DPPH 0.1 mM in ethanol
Procedure: Antioxidant compounds able to neutralize DPPH radicals are increasingly recognized due to their capability of combating cancer, slowing down the aging process and regulating inflammation. As a result, they could potentially offer protection against rheumatoid arthritis and inflammation. […] In this experiment, NDGA and BHT were used as reference compounds and measurements took place at 30 min and 60 min. […] Such low scavenging activity of DPPH radicals is rather common for metal–NSAID complexes.
S1 Antioxidant activity assay
The antioxidant activity of the compound was evaluated via the ability to scavenge in vitro free radicals such as DPPH and ABTS and to reduce H2O2. All the experiments were carried out at least in triplicate and the standard deviation of absorbance was less than 10% […]
S1.1 Determination of the reducing activity of the radical DPPH
To an ethanolic solution of DPPH (0.1 mM) an equal volume solution of the compounds (0.1 mM) in ethanol was added. Absolute ethanol was also used as control solution. The absorbance at 517 nm was recorded at room temperature after 30 and 60 min in order to examine the possible existence of a potential time−dependence of the DPPH radical scavenging activity.[1] The DPPH−scavenging activity of the compounds was expressed as the percentage reduction of the absorbance values of the initial DPPH solution (DPPH%). NDGA and BHT were used as reference compounds. […]

[4] = value in parentheses, 24 h incubation, 28°C

Row | SMILES | MIC, S. aureus [1] [µg/mL] | MIC ([1]; value in parentheses) [µM] | MIC, X. campestris ([2]; 24 h incubation, 28°C) [µg/mL] | MIC [2, 4] [µM] | MIC, E. coli (Escherichia coli XL1) [µg/mL] | MIC (Escherichia coli XL1; value in parentheses) [µM] | MIC, B. subtilis [3] [µg/mL] | MIC ([3]; value in parentheses) [µM] | solubility in H2O and MeCN (Solubility) | %DPPH-scavenging ability (DPPH%), 30 min (DPPH radical scavenging) | %DPPH-scavenging ability (DPPH%), 60 min (DPPH radical scavenging) | MIC ([1]; Staphylococcus aureus, ATCC29213) [µg/mL] | MIC ([1]; Staphylococcus aureus, ATCC29213, value in parentheses) [µM] | MIC ([2]; Xanthomonas campestris, ATCC33013, 24 h) [µg/mL] | MIC ([2]; Xanthomonas campestris, ATCC33013, value in parentheses, 24 h incubation, 28°C) [µM] | MIC (Escherichia coli XL1; Escherichia coli, XL1) [µg/mL] | MIC (Escherichia coli XL1; Escherichia coli, XL1, value in parentheses) [µM] | MIC ([3]; Bacillus subtilis, ATCC6633) [µg/mL] | MIC ([3]; Bacillus subtilis, ATCC6633, value in parentheses) [µM]
1 | C[O-].C[O-].Cc1ccc2ccc3ccc(C)nc3c2n1.Cc1ccc2ccc3ccc(C)nc3c2n1.O=C([O-])c1ccccc1Nc1ccc([N+](=O)[O-])cc1.O=C([O-])c1ccccc1Nc1ccc([N+](=O)[O-])cc1.[Co+2].[Co+2] [Complex 4, [Co2(4′–NO2–fen)2(μ–CH3O)2(neoc)2]] | 12.5 | 11 | 12.5 | 11 | > 50 | > 45 | 12.5 | 11 | partially soluble | Not active | Not active |  |  |  |  |  |  |  | 
2 | O=C(O)c1ccccc1Nc1ccc([N+](=O)[O-])cc1 [4′–NO2–fenH, 4′–nitrofenamic acid] |  |  |  |  |  |  |  |  |  | Not active | Not active | 25 | 97 | 25 | 97 | 25 | 97 | 12.5 | 48
3 | O=C([O-])c1ccccc1Nc1ccc([N+](=O)[O-])cc1.O=C([O-])c1ccccc1Nc1ccc([N+](=O)[O-])cc1.[Co+2].c1cnc2c(c1)ccc1cccnc12 [Complex 3, [Co(4′–NO2–fen)2(phen)]] | 25 | 33 | 25 | 33 | 25 | 33 | 25 | 33 | partially soluble | Not active | Not active |  |  |  |  |  |  |  | 
4 | CO.CO.CO.CO.O=C([O-])c1ccccc1Nc1ccc([N+](=O)[O-])cc1.O=C([O-])c1ccccc1Nc1ccc([N+](=O)[O-])cc1.[Co+2] [Complex 1, [Co(4′–NO2–fen)2(MeOH)4]] | 12.5 | 18 | > 50 | > 71 | > 50 | > 71 | 12.5 | 18 | partially soluble | Not active | Not active |  |  |  |  |  |  |  | 
5 | O=C([O-])c1ccccc1Nc1ccc([N+](=O)[O-])cc1.O=C([O-])c1ccccc1Nc1ccc([N+](=O)[O-])cc1.[Co+2].c1ccc(Nc2ccccn2)nc1 [Complex 2, [Co(4′–NO2–fen)2(bipyam)]] | > 50 | > 67 | 25 |  | > 50 | > 67 | 25 | 34 | partially soluble | Not active | Not active |  |  |  |  |  |  |  | 
